This assay relates to isl1+ cardiac progenitor cells. Briefly: Chemical compound screen with β-gal tagged isl1+ cardiac progenitors (luciferase/β-gal activity, β-gal+ cell count, isl1 immunohistochemistry). It counts as cell-based, mouse. From the text: The inventors developed an assay based on the β-gal tagged cardiac progenitors to identify small molecules and defined factors that can trigger the renewal of the cardiac progenitors (FIGS. 4A and 4B). The isl1-mER-Cre-mER knock-in mice were utilized to conditionally mark embryonic and post-natal isl1+ cardiac progenitors. Mice which are double heterozygous for the isl1-mER-Cre-mER and the R26R-indicator allele allow the purification of a relatively homogeneous population of isl1+ cardiac progenitors after amplification on mesenchymal feeder layers.
The β-gal substrate 6-O-β-galactopyranosyl-luciferin allows luciferase-mediated detection of light emission in genetically lacZ labelled cells in a high throughput manner (FIGS. 4A and 4B). 6-O-galactopyranosyl-luciferin is cleaved by (3-gal into D-Luciferin, which is processed by luciferase in an ATP-dependent step into Oxyluciferin and light.
After screening a small molecule library containing over 15,000 compounds, a series of compounds that can trigger the expression of lacZ activity as well as the induction of the isl1 protein in cultured cardiac progenitor preparations was identified.
The screen was based on three independent read-out systems. First, the chemical compound library was screened for luciferase activity, and thereby indirectly for β-gal activity of proliferating cells. Second, β-gar progenitor cells were counted within the mesenchymal feeder layers with and without compound treatment, and third, expression of the transcription factor isl1^+ per progenitor cell was screened in an immunohistochemically based analysis.

As for `O=C1Nc2cc(Br)ccc2/C1=C1/Nc2ccccc2/C1=N\O` [BIO, 6-bromoindirubin-3′-oxime], the “effect on the proliferation capacity of isl1+ cardiac progenitor cells” value is 50-80 fold. Also, the β-galactosidase activity result (cardiac progenitor cells from isl1-mER-Cre-mER/R26R mice, after 4 days in culture, luciferase assay) is recorded as “significant increase”. In addition, where the note is “cells counted within mesenchymal feeder layers with and without compound treatment”, the “β-gal+ progenitor cell number” value is reported as “significant increase”. For the same compound, under “result in words (FIG. 5 legend)”, the “proliferation of isl1+ precursor cells” value was “significant increase”.

These data come from patent publication US8323909B2, “Methods of identifying small molecules for renewals, survival and migration of cardiac progenitors” (The Regents of the University of California, priority 2006, dated 2012).
